In patent US9676714B2, “Sulfonylindole derivatives and method for preparing the same” (Daewoong Pharmaceutical Co., Ltd., priority 2013, dated 2017) one finds IC50 data, which are given here for 29 compounds.

Counter-ions that a name gives are not always drawn.

The target of the assay is T1, proton pump (H+/K+-ATPase) (Sus scrofa, UniProt P19156).
T1 construct: Gastric vesicles were prepared from hog stomach via centrifugal separation; from tissue; host or cells: hog stomach (gastric vesicles, method of Rabon et al. 1988)
T1 sequence (P19156 whole entry): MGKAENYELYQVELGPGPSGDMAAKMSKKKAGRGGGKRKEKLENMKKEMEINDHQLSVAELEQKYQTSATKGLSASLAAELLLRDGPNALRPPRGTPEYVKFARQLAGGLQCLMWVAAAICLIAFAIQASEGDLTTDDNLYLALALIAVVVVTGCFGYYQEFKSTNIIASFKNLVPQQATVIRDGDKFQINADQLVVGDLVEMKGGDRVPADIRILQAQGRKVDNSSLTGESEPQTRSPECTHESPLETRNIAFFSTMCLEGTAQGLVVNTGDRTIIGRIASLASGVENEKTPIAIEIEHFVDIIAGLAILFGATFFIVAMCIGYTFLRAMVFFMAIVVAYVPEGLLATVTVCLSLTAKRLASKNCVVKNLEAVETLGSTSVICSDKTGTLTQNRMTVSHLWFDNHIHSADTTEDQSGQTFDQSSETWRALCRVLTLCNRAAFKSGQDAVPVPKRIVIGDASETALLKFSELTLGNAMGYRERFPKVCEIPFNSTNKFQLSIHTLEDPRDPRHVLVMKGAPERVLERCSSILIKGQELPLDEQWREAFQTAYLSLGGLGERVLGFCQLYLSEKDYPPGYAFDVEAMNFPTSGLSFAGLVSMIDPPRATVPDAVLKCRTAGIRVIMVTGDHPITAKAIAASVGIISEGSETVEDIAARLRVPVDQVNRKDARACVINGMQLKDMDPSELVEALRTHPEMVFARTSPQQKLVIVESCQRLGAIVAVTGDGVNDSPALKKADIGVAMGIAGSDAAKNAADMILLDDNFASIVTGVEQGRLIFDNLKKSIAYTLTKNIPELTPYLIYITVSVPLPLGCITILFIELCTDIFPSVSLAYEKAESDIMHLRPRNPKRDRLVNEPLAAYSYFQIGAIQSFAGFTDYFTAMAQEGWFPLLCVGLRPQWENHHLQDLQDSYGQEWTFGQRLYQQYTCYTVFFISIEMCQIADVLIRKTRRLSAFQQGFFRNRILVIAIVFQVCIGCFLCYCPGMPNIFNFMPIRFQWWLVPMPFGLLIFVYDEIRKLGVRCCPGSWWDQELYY
T1 sequence (P18434 whole entry partner): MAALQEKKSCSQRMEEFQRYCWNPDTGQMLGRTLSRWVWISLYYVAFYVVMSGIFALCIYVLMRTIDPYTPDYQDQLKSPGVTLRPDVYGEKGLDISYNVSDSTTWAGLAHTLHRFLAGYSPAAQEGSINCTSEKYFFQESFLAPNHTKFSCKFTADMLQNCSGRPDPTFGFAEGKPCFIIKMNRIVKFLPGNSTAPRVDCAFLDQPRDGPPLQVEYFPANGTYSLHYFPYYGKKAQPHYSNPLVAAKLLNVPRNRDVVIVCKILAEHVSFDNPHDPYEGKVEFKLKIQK
Description: Measurement of inhibitory effects on proton pump (H+/K+-ATPase) activities. The class given is biochemical. The conditions noted are these: hog gastric vesicles, K+-specific H+/K+-ATPase activity, Tris-HCl buffer pH 7.4, 37° C. for 40 minutes, malachite green Pi readout. Here is the method:
1) Preparation of Gastric Vesicles
Gastric vesicles were prepared from hog stomach via centrifugal separation (Edd C. Rabon et al., Preparation of Gastric H^+,K^+-ATPase, Methods in enzymology, vol. 157 Academic Press Inc., (1988), pp. 649-654). The protein contents of the thus prepared gastric vesicles were quantitated by Bicinchoninic Acid (BCA) kit.
2) Measurement of Inhibitory Effects on Proton Pump (H^+/K^+-ATPase) Activities
The inhibitory effects of the compounds of the present invention against proton pump activities were measured using a 96-well plate. In this assay, the K^+-specific H^+/K^+-ATPase activities were calculated based on the difference between the H^+/K^+-ATPase activity in the presence of K^+ and that in the absence of K. In the 96-well plate, 0.5% dimethyl sulfoxide (DMSO) in buffer was added to the negative and positive control groups, and the diluted compounds of the present invention were added to the test groups. All assays were performed in a reaction volume of 100 μl at room temperature. The reaction buffer solution (60 mmol/l Tris-HCl buffer, pH 7.4) including the hog gastric vesicles was added with DMSO and the compounds at various concentrations, and then further added with 10 μl of 10 mmol/1 adenosine triphosphate Tris buffer solution (60 mmol/l Tris-HCl buffer, pH 7.4) to initiate an enzyme reaction. […] The amount of monophosphate (Pi) in the reaction was measured at 570 nm using a micro plate reader (FLUOstar Omega, BMG LABTECH). The inhibition rates (%) were determined from the activity values of control groups and those of test compounds at various concentrations, and the […] of the test compounds were calculated based on the respective inhibition value (%) using the Logistic 4-parameter function of Sigmaplot 8.0 program.
`CNCc1cn(S(=O)(=O)c2cccnc2)c2cc(Nc3ccc(C)nc3C)ccc12` [Example 111, N-(2,6-dimethylpyridin-3-yl)-3-((methylamino)methyl)-1-(pyridin-3-ylsulfonyl)-1H-indol-6-amine hydrochloride] registered an IC50 of 3.21 µM. For `CNCc1cn(S(=O)(=O)c2cccnc2)c2cc(Nc3ncccc3Cl)ccc12` [Example 100, N-(3-chloropyridin-2-yl)-3-((methylamino)methyl)-1-(pyridin-3-ylsulfonyl)-1H-indol-6-amine hydrochloride], half-maximal inhibition (IC50) was put at 0.8 µM. `CNCc1cn(S(=O)(=O)c2cccnc2)c2cc(Nc3ccccc3)ccc12` [Example 2, 3-((methylamino)methyl)-N-phenyl-1-(pyridin-3-ylsulfonyl)-1H-indol-6-amine hydrochloride] displayed an IC50 of 1.15 µM. With `CNCc1cn(S(=O)(=O)c2cccnc2)c2cc(Cc3ccc(OC(F)(F)F)cc3F)ccc12` [Example 279, 1-(6-(2-fluoro-4-(trifluoromethoxy)benzyl)-1-(pyridin-3-ylsulfonyl)-1H-indol-3-yl)-N-methylmethanamine hydrochloride] the figure was 2.19 µM. For `CNCc1cn(S(=O)(=O)c2cccnc2)c2cc(Nc3cc(OC)cc(OC)c3)ccc12` [Example 63, N-(3,5-dimethoxyphenyl)-3-((methylamino)methyl)-1-(pyridin-3-ylsulfonyl)-1H-indol-6-amine hydrochloride] the value was 1.31 µM; for `CNCc1cn(S(=O)(=O)c2cccnc2)c2cc(Nc3cccc(C)c3F)ccc12` [Example 20, N-(2-fluoro-3-methylphenyl)-3-((methylamino)methyl)-1-(pyridin-3-ylsulfonyl)-1H-indol-6-amine hydrochloride], 0.38 µM; for `CNCc1cn(S(=O)(=O)c2cccc(OC(F)F)c2)c2cc(Nc3ccc(Cl)cc3F)ccc12` [Example 176, N-(4-chloro-2-fluorophenyl)-1-((3-(difluoromethoxy)phenyl)sulfonyl)-3-((methylamino)methyl)-1H-indol-6-amine hydrochloride], 0.37 µM. For `CNCc1cn(S(=O)(=O)c2cccc(OC)c2)c2cc(Cc3ccc(C)cc3Cl)ccc12` [Example 303, 1-(6-(2-chloro-4-methylbenzyl)-1-((3-methoxyphenyl)sulfonyl)-1H-indol-3-yl)-N-methylmethanamine] the value was 0.47 µM.

Turning to `CNCc1cn(S(=O)(=O)c2ccc(OC(F)F)cc2)c2cc(Cc3ccc(C)cc3Cl)ccc12` [Example 308, 1-(6-(2-chloro-4-methylbenzyl)-1-((4-(difluoromethoxy)phenyl)sulfonyl)-1H-indol-3-yl)-N-methylmethanamine], 1.34 µM corresponded to half-maximal inhibition (IC50).

In the case of `CNCc1cn(S(=O)(=O)c2cccnc2)c2cc(Cc3cccnc3OC)ccc12` [Example 282, 1-(6-((2-methoxypyridin-3-yl)methyl)-1-(pyridin-3-ylsulfonyl)-1H-indol-3-yl)-N-methylmethanamine hydrochloride], 2.92 µM corresponded to half-maximal inhibition (IC50).

In turn, `CNCc1cn(S(=O)(=O)c2cccnc2)c2cc(Nc3ccc(C(=O)OC)cc3Cl)ccc12` [Example 57, methyl 3-chloro-4-((3-((methylamino)methyl)-1-(pyridin-3-ylsulfonyl)-1H-indol-6-yl)amino)benzoate hydrochloride] had an IC50 of 0.43 µM. With `CNCc1cn(S(=O)(=O)c2cccc(C(F)(F)F)c2)c2cc(Nc3ccc(OC(F)(F)F)cc3C)ccc12` [Example 189, N-(2-methyl-4-(trifluoromethoxy)phenyl)-3-((methylamino)methyl)-1-((3-(trifluoromethyl)phenyl)sulfonyl)-1H-indol-6-amine hydrochloride] the figure was 0.65 µM; with `CNCc1cn(S(=O)(=O)c2cccnc2)c2cc(-c3ccc(F)nc3)ccc12` [Example 255, 1-(6-(6-fluoropyridin-3-yl)-1-(pyridin-3-ylsulfonyl)-1H-indol-3-yl)-N-methylmethanamine hydrochloride], 11.7 µM; with `CNCc1cn(S(=O)(=O)c2cccnc2)c2cc(-c3ccnn3C)ccc12` [Example 250, N-methyl-1-(6-(1-methyl-1H-pyrazol-5-yl)-1-(pyridin-3-ylsulfonyl)-1H-indol-3-yl)methanamine], 40 µM. With `CNCc1cn(S(=O)(=O)c2cccnc2)c2cc(-c3cccc(NC(C)=O)c3)ccc12` [Example 245, N-(3-(3-((methylamino)methyl)-1-(pyridin-3-ylsulfonyl)-1H-indol-6-yl)phenyl)acetamide] the figure was 12.9 µM; with `CNCc1cn(S(=O)(=O)c2cccnc2)c2cc(Nc3ccc(Br)cc3C(F)(F)F)ccc12` [Example 45, N-(4-bromo-2-(trifluoromethyl)phenyl)-3-((methylamino)methyl)-1-(pyridin-3-ylsulfonyl)-1H-indol-6-amine hydrochloride], 1.2 µM; with `CNCc1cn(S(=O)(=O)c2cccnc2)c2cc(Cc3ccc(OC(F)(F)F)cc3Cl)ccc12` [Example 280, 1-(6-(2-chloro-4-(trifluoromethoxy)benzyl)-1-(pyridin-3-ylsulfonyl)-1H-indol-3-yl)-N-methylmethanamine hydrochloride], 0.86 µM.

For the compound `CNCc1cn(S(=O)(=O)c2cccc(C(F)(F)F)c2)c2cc(Nc3ccc(Cl)cc3F)ccc12` [Example 185, N-(4-chloro-2-fluorophenyl)-3-((methylamino)methyl)-1-((3-(trifluoromethyl)phenyl)sulfonyl)-1H-indol-6-amine hydrochloride], half-maximal inhibition (IC50) required 1 µM. The IC50 values of the last two compounds are within 1.5-fold of each other. In turn, `CNCc1cn(S(=O)(=O)c2cccnc2)c2cc(Nc3ccc(F)cc3Cl)ccc12` [Example 25, N-(2-chloro-4-fluorophenyl)-3-((methylamino)methyl)-1-(pyridin-3-ylsulfonyl)-1H-indol-6-amine hydrochloride] came in with an IC50 of 0.16 µM. For `CCOc1c(F)ccc(Nc2ccc3c(CNC)cn(S(=O)(=O)c4cccnc4)c3c2)c1F` [Example 69, N-(3-ethoxy-2,4-difluorophenyl)-3-((methylamino)methyl)-1-(pyridin-3-ylsulfonyl)-1H-indol-6-amine hydrochloride] the value was 2.35 µM; for `CNCc1cn(S(=O)(=O)c2cccnc2)c2cc(Nc3ccccc3Cl)ccc12` [Example 4, N-(2-chlorophenyl)-3-((methylamino)methyl)-1-(pyridin-3-ylsulfonyl)-1H-indol-6-amine hydrochloride], 0.06 µM; for `CNCc1cn(S(=O)(=O)c2cccnc2)c2cc(Nc3ccc(C)nc3Cl)ccc12` [Example 113, N-(2-chloro-6-methylpyridin-3-yl)-3-((methylamino)methyl)-1-(pyridin-3-ylsulfonyl)-1H-indol-6-amine hydrochloride], 0.34 µM. For the compound `CNCc1cn(S(=O)(=O)c2cccc(C(F)(F)F)c2)c2cc(Nc3ccc(Cl)cc3C(F)(F)F)ccc12` [Example 186, N-(4-chloro-2-(trifluoromethyl)phenyl)-3-((methylamino)methyl)-1-((3-(trifluoromethyl)phenyl)sulfonyl)-1H-indol-6-amine hydrochloride], the IC50 stood at 0.41 µM.

Compound `CNCc1cn(S(=O)(=O)c2ccc(OC(F)(F)F)cc2)c2cc(Nc3ccc(C)cc3F)ccc12` [Example 206, N-(2-fluoro-4-methylphenyl)-3-((methylamino)methyl)-1-((4-(trifluoromethoxy)phenyl)sulfonyl)-1H-indol-6-amine hydrochloride] registered an IC50 of 2.55 µM. This IC50 is about 6.2-fold higher than that of the compound before. `CNCc1cn(S(=O)(=O)c2cccnc2)c2cc(Nc3ccc(Cl)cc3C)ccc12` [Example 27, N-(4-chloro-2-methylphenyl)-3-((methylamino)methyl)-1-(pyridin-3-ylsulfonyl)-1H-indol-6-amine hydrochloride] registered an IC50 of 0.42 µM. As to `CNCc1cn(S(=O)(=O)c2cccnc2)c2cc(Nc3ccc([N+](=O)[O-])cc3Cl)ccc12` [Example 41, N-(2-chloro-4-nitrophenyl)-3-((methylamino)methyl)-1-(pyridin-3-ylsulfonyl)-1H-indol-6-amine hydrochloride], the IC50 came out at 0.48 µM. With `CNCc1cn(S(=O)(=O)c2cccnc2)c2cc(Nc3cccc(Br)c3)ccc12` [Example 5, N-(3-bromophenyl)-3-((methylamino)methyl)-1-(pyridin-3-ylsulfonyl)-1H-indol-6-amine hydrochloride] the figure was 0.8 µM; with `CNCc1cn(S(=O)(=O)c2cccnc2)c2cc(-c3cnn(C)c3)ccc12` [Example 249, N-methyl-1-(6-(1-methyl-1H-pyrazol-4-yl)-1-(pyridin-3-ylsulfonyl)-1H-indol-3-yl)methanamine], 50 µM; with `COC(=O)c1cn(S(=O)(=O)c2cccnc2)c2cc(-c3ccc(OC)nc3)ccc12` [Example 338, methyl 6-(6-methoxypyridin-3-yl)-1-(pyridin-3-ylsulfonyl)-1H-indol-3-carboxylate], 3.5 µM.
